Consider seven compounds from patent publication US20140005214A1, “PIPERIDINONE CARBOXAMIDE SPIROHYDANTOIN CGRP RECEPTOR ANTAGONISTS” (priority 2011, published 2014).

For this test, the target named is T1, recombinant human CL receptor/RAMP1 (Homo sapiens, UniProt O60894+Q16602).
T1 construct: expressed in transfected cells; membranes
Briefly: Recombinant receptor binding assay (125I-hCGRP). The conditions noted are these: membranes of HEK 293 cells expressing recombinant human CL receptor/RAMP1; 10 pM 125I-hCGRP. As for the experimental part: RECOMBINANT RECEPTOR: Human CL receptor (Genbank accession number L76380) was subcloned into the expression vector pIREShyg2 (BD Biosciences Clontech) as a 5′NheI and 3′ PmeI fragment. Human RAMP1 (Genbank accession number AJ001014) was subcloned into the expression vector pIRESpuro2 (BD Biosciences Clontech) as a 5′NheI and 3′NotI fragment. HEK 293 cells (human embryonic kidney cells; ATCC #CRL-1573) were cultured in DMEM with 4.5 g/L glucose, 1 mM sodium pyruvate and 2 mM glutamine supplemented with 10% fetal bovine serum (FBS), 100 units/mL penicillin and 100 μg/mL streptomycin, and maintained at 37° C. and 95% humidity. Cells were subcultured by treatment with 0.25% trypsin with 0.1% EDTA in HBSS. Stable cell line generation was accomplished by co-transfecting 10 μg of DNA with 30 μg Lipofectamine 2000 (Invitrogen) in 75 cm^2 flasks. CL receptor and RAMP1 expression constructs were co-transfected in equal amounts. Twenty-four hours after transfection the cells were diluted and selective medium (growth medium+[…] hygromycin and 1 μg/mL puromycin) was added the following day. A clonal cell line was generated by single cell deposition utilizing a FACS Vantage SE (Becton Dickinson). Growth medium was adjusted to 150 μg/mL hygromycin and 0.5 μg/mL puromycin for cell propagation.
RECOMBINANT RECEPTOR BINDING ASSAY: Cells expressing recombinant human CL receptor/RAMP1 were washed with PBS and harvested in harvest buffer containing 50 mM HEPES, 1 mM EDTA and Complete™ protease inhibitors (Roche). The cell suspension was disrupted with a laboratory homogenizer and centrifuged at 48,000 g to isolate membranes. The pellets were resuspended in harvest buffer plus 250 mM sucrose and stored at −70° C. For binding assays, 20 μg of membranes were incubated in 1 mL binding buffer (10 mM HEPES, pH 7.4, 5 mM MgCl2, and 0.2% BSA) for 3 h at room temperature containing 10 pM ^125I-hCGRP (GE Healthcare) and antagonist. The assay was terminated by filtration through 96-well GFB glass fiber filter plates (PerkinElmer) that had been blocked with 0.05% polyethyleneimine. The filters were washed 3 times with ice-cold assay buffer (10 mM HEPES, pH 7.4, and 5 mM MgCl2). Scintillation fluid was added and the plates were counted on a Topcount (Packard). Non-specific binding was determined and the data analysis was carried out with the apparent dissociation constant (Ki) determined by using a non-linear least squares fitting the bound CPM data to the equation below: […]
Where Y is observed CPM bound, Ymax is total bound counts, Ymin is non specific bound counts, (Ymax−Ymin) is specific bound counts, % Imax is the maximum percent inhibition, % I min is the minimum percent inhibition, radiolabel is the probe, and the Kd is the apparent dissociation constant for the radioligand for the receptor as determined by hot saturation experiments.

T1 sequence (Q16602 23-461): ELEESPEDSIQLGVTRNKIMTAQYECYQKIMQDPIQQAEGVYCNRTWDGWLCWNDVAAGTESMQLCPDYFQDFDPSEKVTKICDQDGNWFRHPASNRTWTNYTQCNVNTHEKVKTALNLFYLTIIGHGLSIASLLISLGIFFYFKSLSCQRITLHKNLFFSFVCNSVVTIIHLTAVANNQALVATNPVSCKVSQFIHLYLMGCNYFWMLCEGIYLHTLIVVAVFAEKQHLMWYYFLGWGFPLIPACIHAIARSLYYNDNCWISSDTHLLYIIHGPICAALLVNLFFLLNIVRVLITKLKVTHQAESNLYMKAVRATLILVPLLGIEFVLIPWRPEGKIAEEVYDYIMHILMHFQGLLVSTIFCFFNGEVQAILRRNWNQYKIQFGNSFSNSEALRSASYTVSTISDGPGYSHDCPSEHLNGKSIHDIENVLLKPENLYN
T1 sequence (O60894 27-148): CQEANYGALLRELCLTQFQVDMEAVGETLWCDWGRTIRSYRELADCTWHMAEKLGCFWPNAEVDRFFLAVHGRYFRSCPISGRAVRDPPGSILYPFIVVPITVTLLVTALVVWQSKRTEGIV

As to `Cc1ccccc1[C@@H]1C[C@H](NC(=O)c2ccc3c(c2)C[C@@]2(C3)C(=O)NC(=O)N2C)C(=O)N(CC(F)(F)F)[C@@H]1C` [Example 5], the Ki came out at 1.9 nM.
As for `C[C@@H]1[C@H](c2c(F)ccc(F)c2F)C[C@H](NC(=O)c2ccc3c(c2)C[C@@]2(C3)C(=O)NC(=O)N2C)C(=O)N1CC(F)(F)F` [Example 2], the figure is 0.048 nM; as for `C[C@@H]1[C@H](c2c(F)c(F)cc(F)c2F)C[C@H](NC(=O)c2ccc3c(c2)C[C@@]2(C3)C(=O)NC(=O)N2C)C(=O)N1CC(F)(F)F` [Example 4], 0.036 nM.
As for `C[C@@H]1[C@H](c2ccccc2)C[C@H](NC(=O)c2ccc3c(c2)C[C@@]2(C3)C(=O)NC(=O)N2C)C(=O)N1CC(F)(F)F` [Example 3], the figure is 0.36 nM; as for `C[C@@H]1[C@H](c2cc(F)cc(F)c2F)C[C@H](NC(=O)c2ccc3c(c2)C[C@@]2(C3)C(=O)NC(=O)N2C)C(=O)N1CC(F)(F)F` [Example 1, (4S)-3-Methyl-N-[(3S,5S,6R)-6-methyl-2-oxo-1-(2,2,2-trifluoroethyl)-5-(2,3,5-trifluorophenyl)piperidin-3-yl]-2,5-dioxo-1′,3′-dihydrospiro[imidazolidine-4,2′-indene]-5′-carboxamide], 0.042 nM; as for `Cc1cccc([C@@H]2C[C@H](NC(=O)c3ccc4c(c3)C[C@@]3(C4)C(=O)NC(=O)N3C)C(=O)N(CC(F)(F)F)[C@@H]2C)c1` [Example 6], 1.8 nM.
`Cc1c(F)cccc1[C@@H]1C[C@H](NC(=O)c2ccc3c(c2)C[C@@]2(C3)C(=O)NC(=O)N2C)C(=O)N(CC(F)(F)F)[C@@H]1C` [Example 7]: the Ki was 0.5 nM.

A word on the Ki: it is the equilibrium dissociation constant of an inhibitor or competing ligand from its target.
